One test has as its target Galectin-1 (Homo sapiens, UniProt P09382). Put plainly: fluorescence anisotropy assay, compound as inhibitor of galectin / fluorescein tagged saccharide probe interaction. It is filed as binding. From the text:
(§1) Anal. Biochem. 334: 36-47, (Sörme et al., 2004) and Monovalent interactions of Galectin-1 By Salomonsson, Emma; Larumbe, Amaia; Tejler, Johan; Tullberg, Erik; Rydberg, Hanna; Sundin, Anders; Khabut, Areej; Frejd, Torbjorn; Lobsanov, Yuri D.; Rini, James M.; et al, From Biochemistry (2010), 49(44), 9518-9532, (Salomonsson et al., 2010).

Another test addresses Galectin-3 (Homo sapiens, UniProt P17931). The description is as above. In kind it is binding.
Text: as §1

Structures are written as SMILES. Like-named read-outs stand apart in the source and are kept apart here.

Galectin-1, sequence (P09382 whole entry): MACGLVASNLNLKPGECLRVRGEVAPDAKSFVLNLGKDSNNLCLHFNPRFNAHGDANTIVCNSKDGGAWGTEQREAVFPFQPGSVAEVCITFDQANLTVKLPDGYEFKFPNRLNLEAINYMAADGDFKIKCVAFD
Galectin-3, sequence (P17931 whole entry): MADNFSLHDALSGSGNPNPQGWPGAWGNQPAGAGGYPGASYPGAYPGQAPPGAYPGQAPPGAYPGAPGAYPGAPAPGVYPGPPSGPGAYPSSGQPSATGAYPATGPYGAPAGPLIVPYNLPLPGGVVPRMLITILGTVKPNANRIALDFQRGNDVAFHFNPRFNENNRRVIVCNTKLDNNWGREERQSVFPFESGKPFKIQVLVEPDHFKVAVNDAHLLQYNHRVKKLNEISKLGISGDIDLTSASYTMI

`CO[C@@H]1[C@@H](n2cc(-c3csc(O)n3)nn2)[C@@H](O)[C@@H](CO)O[C@@H]1Sc1ccc(Cl)c(Cl)c1` [Example 9, 3,4-Dichlorophenyl 3-deoxy-3-[4-(2-hydroxythiazol-4-yl)-1H-1,2,3-triazol-1-yl]-2-O-methyl-1-thio-α-D-galactopyranoside]: the Kd (as a rule, the free concentration of one partner at which half of the binding sites on the other are occupied at equilibrium, for simple one-to-one binding) at Galectin-1 (read-out: Galectin-1 Kd) was found to be 41 nM; at Galectin-3, 4.6 µM.
As to `CO[C@@H]1[C@@H](n2cc(-c3nccs3)nn2)[C@@H](O)[C@@H](CO)O[C@@H]1Sc1cc(Br)cnc1C#N` [Example 3, 5-Bromo-2-cyanopyridin-3-yl 3-deoxy-2-O-methyl-3-[4-(2-thiazolyl)-1H-1,2,3-triazol-1-yl]-1-thio-α-D-galactopyranoside], the Kd at Galectin-1 was 110 nM; at Galectin-3 it was 1.1 µM.
The like results for `CNC(=O)c1ncc(Cl)cc1S[C@H]1O[C@H](CO)[C@H](O)[C@H](n2cc(-c3nc(Cl)cs3)nn2)[C@H]1OC` [Example 93, 5-Chloro-2-(N-methylcarbamoyl)pyridin-3-yl 3-[4-(4-chlorothiazol-2-yl)-1H-1,2,3-triazol-1-yl]-3-deoxy-2-O-methyl-1-thio-α-D-galactopyranoside] were, in that order, 15 nM and 0.048 µM.
The like results for `CO[C@@H]1[C@@H](n2cc(-c3csc(N)n3)nn2)[C@@H](O)[C@@H](CO)O[C@@H]1Sc1cncc(C#N)c1` [Example 40, 5-Cyanopyridin-3yl 3-[4-(2-aminothiazol-4-yl)-1H-1,2,3-triazol-1-yl]-3-deoxy-2-O-methyl-1-thio-α-D-galactopyranoside] were, in that order, 240 nM and 10.7 µM.
The like results for `N#Cc1cc(Cl)cc(S[C@H]2O[C@H](CO)[C@H](O)[C@H](n3cc(-c4nc(Cl)cs4)nn3)[C@H]2O)c1` [Example 51, 3-Chloro-5-cyanophenyl 3-[4-(4-chlorothiazol-2-yl)-1H-1,2,3-triazol-1-yl]-3-deoxy-1-thio-α-D-galactopyranoside] were, in that order, 250 nM and 0.37 µM.
As to `C#Cc1cncc(S[C@H]2O[C@H](CO)[C@H](O)[C@H](n3cc(-c4nc(Cl)cs4)nn3)[C@H]2OC)c1` [Example 37, 5-Ethynylpyridin-3-yl 3-[4-(4-chlorothiazol-2-yl)-1H-1,2,3-triazol-1-yl]-3-deoxy-2-O-methyl-1-thio-α-D-galactopyranoside], the equilibrium dissociation constant (Kd) at Galectin-1 was 200 nM; at Galectin-3 it was 0.39 µM.
Consider `Nc1nc(-c2cn([C@H]3[C@@H](O)[C@@H](CO)O[C@H](Sc4ccc(Cl)c(Cl)c4)[C@@H]3OCC(F)(F)F)nn2)cs1` [Example 78, 3,4-Dichlorophenyl 3-[4-(2-aminothiazol-4-yl)-1H-1,2,3-triazol-1-yl]-3-deoxy-2-O-(2,2,2-trifluoroethyl)-1-thio-α-D-galactopyranoside], for which the Kd at Galectin-1 worked out at 520 nM; on Galectin-3, 7.2 µM.
Take `CO[C@@H]1[C@@H](n2cc(-c3nccs3)nn2)[C@@H](O)[C@@H](CO)O[C@@H]1Sc1cncc(Br)c1` [Example 2, 5-Bromopyridin-3-yl 3-deoxy-2-O-methyl-3-[4-(2-thiazolyl)-1H-1,2,3-triazol-1-yl]-1-thio-α-D-galactopyranoside]: the figures for the Kd on Galectin-1 and at Galectin-3 were 230 nM and 3 µM, respectively.
The corresponding values for `CCO[C@@H]1[C@@H](n2cc(-c3csc(N)n3)nn2)[C@@H](O)[C@@H](CO)O[C@@H]1Sc1ccc(Cl)c(Cl)c1` [Example 87, 3,4-Dichlorophenyl 3-[4-(2-aminothiazol-4-yl)-1H-1,2,3-triazol-1-yl]-3-deoxy-2-O-ethyl-1-thio-α-D-galactopyranoside] are 110 nM and 5.5 µM.
The corresponding values for `OC[C@H]1O[C@H](Sc2ccc(Cl)c(Cl)c2)C[C@@H](n2cc(-c3csc(O)n3)nn2)[C@H]1O` [Example 10, 3,4-Dichlorophenyl 2,3-dideoxy-3-[4-(2-hydroxythiazol-4-yl)-1H-1,2,3-triazol-1-yl]-1-thio-α-D-galactopyranoside] are 82 nM and 5.3 µM.
Turning to `CO[C@@H]1[C@@H](n2cc(-c3csc(N)n3)nn2)[C@@H](O)[C@@H](CO)O[C@@H]1Sc1cc(Cl)cnc1C` [Example 18, 5-Chloro-2-methylpyridin-3-yl 3-[4-(2-aminothiazol-4-yl)-1H-1,2,3-triazol-1-yl]-3-deoxy-2-O-methyl-1-thio-α-D-galactopyranoside], the Kd at Galectin-1 was determined as 120 nM; at Galectin-3 it was 5.4 µM.
The like results for `CNC(=O)c1ccc(Cl)cc1S[C@H]1OC(CO)[C@H](O)C(n2cc(-c3nccs3)nn2)C1OC` (stereo partly drawn) [Example 62, 5-Chloro-2-(N-methyl-carbonyl)phenyl 3-deoxy-2-O-methyl-3-[4-(2-thiazolyl)-1H-1,2,3-triazol-1-yl]-1-thio-α-D-galactopyranoside] were, in that order, 78 nM and 3.1 µM.
The like results for `CO[C@@H]1[C@@H](n2cc(-c3csc(N)n3)nn2)[C@@H](O)[C@@H](CO)O[C@@H]1Sc1cnc(C(F)(F)F)c(C#N)c1` [Example 44, 3-Cyano-2-(trifluoromethyl)pyridin-5-yl 3-[4-(2-aminothiazol-4-yl)-1H-1,2,3-triazol-1-yl]-3-deoxy-2-O-methyl-1-thio-α-D-galactopyranoside] were, in that order, 360 nM and 16.7 µM.
The like results for `OC[C@H]1O[C@H](Sc2ccc(Cl)c(Cl)c2)[C@H](OCC(F)(F)F)[C@@H](n2cc(-c3csc(O)n3)nn2)[C@H]1O` [Example 79, 3,4-Dichlorophenyl 3-deoxy-2-O-(2,2,2-trifluoroethyl)-3-[4-(2-hydroxythiazol-4-yl)-1H-1,2,3-triazol-1-yl]-1-thio-α-D-galactopyranoside] were, in that order, 460 nM and 6.8 µM.
With `OC[C@H]1O[C@H](Sc2cncc(Cl)c2)[C@H](O)[C@@H](n2cc(-c3nc(Cl)cs3)nn2)[C@H]1O` [Example 48, 5-Chloropyridin-3-yl 3-[4-(4-chlorothiazol-2-yl)-1H-1,2,3-triazol-1-yl]-3-deoxy-1-thio-α-D-galactopyranoside], the Kd on Galectin-1 amounted to 150 nM; at Galectin-3 it was 0.42 µM.
The corresponding values for `CO[C@@H]1[C@@H](n2cc(-c3nc(Cl)cs3)nn2)[C@@H](O)[C@@H](CO)O[C@@H]1Sc1cnc(C#N)c(Cl)c1` [Example 14, 3-Chloro-2-cyanopyridin-5-yl 3-[4-(4-chlorothiazol-2-yl)-1H-1,2,3-triazol-1-yl]-3-deoxy-2-O-methyl-1-thio-α-D-galactopyranoside] are 30 nM and 0.37 µM.
The corresponding values for `CO[C@@H]1[C@@H](n2cc(-c3csc(N)n3)nn2)[C@@H](O)[C@@H](CO)O[C@@H]1Sc1cc(Cl)cnc1-c1cccnc1` [Example 23, 5-Chloro-2-(pyridin-3-yl)pyridin-3-yl 3-[4-(2-aminothiazol-4-yl)-1H-1,2,3-triazol-1-yl]-3-deoxy-2-O-methyl-1-thio-α-D-galactopyranoside] are 30 nM and 4.2 µM.
Regarding `CO[C@@H]1[C@@H](n2cc(-c3csc(Cl)n3)nn2)[C@@H](O)[C@@H](CO)O[C@@H]1Sc1cc(Cl)cnc1C#N` [Example 15, 5-Chloro-2-cyanopyridin-3-yl 3-[4-(2-chlorothiazol-4-yl)-1H-1,2,3-triazol-1-yl]-3-deoxy-2-O-methyl-1-thio-α-D-galactopyranoside], the values for the Kd at Galectin-1 and on Galectin-3 were 56 nM and 0.2 µM, respectively.

For the origin of these results see patent publication US12441754B2, “Galactoside inhibitor of galectins” (GALECTO BIOTECH AB, priority 2019, dated 2025).
